Measured values as given in patent publication EP0888293B1, “N-ACYLAMINOALKYLHYDRAZINECARBOXIMIDAMIDES” (ALTEON Inc., priority 1995, dated 1997).
Where a name gives a salt, the structure may show the parent alone.

Experiments:
[1] = tested on: fixed protein (gelatin, i.e., collagen) surface; experiment: Surface browning experiment on gelatin/paper disks; details: 100 mM glucose-6-phosphate, one week at 50°C, pH 7.4; Peridex at final concentration of 0.04% chlorhexidine, no compound of Formula I
Procedure: To further study the ability of inhibitors of nonenzymatic browning to prevent the discoloration of protein on a surface, such as that which occurs on the tooth surface, the following surface browning experiment is performed. As a substitute for a pellicle-covered tooth surface, unexposed and developed photographic paper is used to provide a fixed protein (gelatin, i.e., collagen) surface on a paper backing. Five millimeter circles are punched and immersed for one week at 50°C in a solution of 100 mM glucose-6-phosphate in a 0.5 M phosphate buffer, pH 7.4, containing 3 mM sodium azide. Glucose-6-phosphate is a sugar capable of participating in nonenzymatic browning at a more rapid rate than glucose. In addition to the glucose-6-phosphate, chlorhexidine and/or a compound of Formula I are included. After incubation, the gelatin/paper disks are rinsed with water, observed for brown color, and photographed.

[2] = tested on: N-acetyl glycyl-lysine methyl ester; experiment: Inhibition of cross-linking of N-acetyl glycyl-lysine methyl ester in the presence of ribose (fluorescence); assay type: biochemical; details: N-acetylglycyllysine methyl ester + ribose, pH 7.4, 37°C, 16-24 hours, fluorescence 350/400 nm
Procedure: The following method was used to evaluate the ability of the compounds of the present invention to inhibit the cross-linking of N-acetyl glycyl-lysine methyl ester in the presence of ribose.
• 0.5 M sodium phosphate buffer pH 7.4 • N-acetylglycyllysine methyl ester in 0.5M sodium phosphate buffer, pH 7.4 • Ribose: 800 mM • Test compounds dissolved in the above buffer and the pH is adjusted to 7.4, if necessary
Reaction mixtures are prepared as follows:
and incubated at 37°C for 16-24 hours. At the end of the incubation period, the fluorescence is read using an excitation wavelength of 350 nm and emission wavelength of 400 nm.

[3] = molecular target: T1, inducible nitric oxide synthase (Mus musculus, UniProt P29477); experiment: Nitric oxide production by lipopolysaccharide-induced macrophage cells; assay type: cell-based; details: RAW 264.7 macrophage cells induced with lipopolysaccharide; test concentration not given
T1 construct: Nitric oxide (NO) production by macrophage cells (RAW 264.7) is induced with lipopolysaccharride; endogenous in cells; host or cells: RAW 264.7 macrophage cells, LPS-induced

Row | % inhibition of NO release [3] [%] | IC50 ([2]; hydrobromide) [mM] | IC50 ([2]; hydrochloride) [mM] | Compound | browning of gelatin/paper disks [1] | IC50 [2] [mM]
1 | – | – | – | [H]/N=C(\N/C(=N/[H])NCCCCCCNC(=N)NC(=N)Nc1ccc(Cl)cc1)Nc1ccc(Cl)cc1 [chlorhexidine] | significant browning | –
2 | 33 | – | – | CC(=O)NCCCNC(=N)NN [N-(3-acetamidopropyl)hydrazinecarboximidamide] | – | > 10
3 | 20 | 11.5 | – | Br.CC(=O)NCCNC(=N)NN [N-(2-acetamidoethyl)hydrazine carboximidamide hydrobromide] | – | –
4 | 15 | – | 10.6 | CC(=O)NCCNC(=N)NN.Cl [N-(2-acetamidoethyl)hydrazine carboximidamide hydrochloride] | – | –

Row | Compound | % inhibition of NO release [3] [%] | IC50 ([2]; hydrobromide) [mM] | IC50 ([2]; hydrochloride) [mM] | browning of gelatin/paper disks [1] | IC50 [2] [mM]
5 | N=C(N)NN [Aminoguanidine hydrochloride, reference compound] | 44 | – | – | – | 10
